Target: TNF-α converting enzyme (TACE) (Homo sapiens, UniProt P78536)
Assay: TACE inhibition (fluorescent peptidyl substrate)
Type: biochemical
Settings: 1 uM; Table 15

Chain of TNF-α converting enzyme (TACE) (P78536 215-824, species assumed): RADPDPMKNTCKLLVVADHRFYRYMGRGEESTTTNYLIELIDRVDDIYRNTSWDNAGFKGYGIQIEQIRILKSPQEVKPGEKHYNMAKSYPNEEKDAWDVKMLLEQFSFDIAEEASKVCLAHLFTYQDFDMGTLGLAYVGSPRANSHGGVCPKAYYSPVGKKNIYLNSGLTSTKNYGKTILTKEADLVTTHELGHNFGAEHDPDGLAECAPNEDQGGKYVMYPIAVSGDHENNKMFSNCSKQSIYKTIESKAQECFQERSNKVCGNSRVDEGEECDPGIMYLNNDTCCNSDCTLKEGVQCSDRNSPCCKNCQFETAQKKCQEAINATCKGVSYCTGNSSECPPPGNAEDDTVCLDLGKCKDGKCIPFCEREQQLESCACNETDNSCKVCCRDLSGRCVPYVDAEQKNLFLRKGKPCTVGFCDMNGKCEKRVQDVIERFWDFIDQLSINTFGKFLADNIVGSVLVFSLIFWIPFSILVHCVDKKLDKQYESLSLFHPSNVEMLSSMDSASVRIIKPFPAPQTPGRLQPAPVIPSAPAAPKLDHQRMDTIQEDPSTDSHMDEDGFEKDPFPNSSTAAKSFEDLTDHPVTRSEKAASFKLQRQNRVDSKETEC

Compared with `CC#CCOc1ccc(S(=O)(=O)N[C@@H](CC)C(=O)NO)cc1` [Example 63], `CC#CCOc1ccc(S(=O)(=O)NC(CO)C(=O)NO)cc1` (stereo not drawn) [Example 98] is lower in “% Inhibition at 1 uM (In Vitro Inhibition of TACE)” value (“% Inhibition at 1 uM” below): 47.6% for the first, 2.5% for the second.

Compared with `CC#CCOc1ccc(S(=O)(=O)NC(CC(N)=O)C(=O)NO)cc1` (stereo not drawn) [Example 66], `CC#CCOc1ccc(S(=O)(=O)NC(CC(=O)O)C(=O)NO)cc1` (stereo not drawn) [Example 67] is higher in “% Inhibition at 1 uM” value: 45.6% for the first, 46.2% for the second.

Going from `CC#CCOc1ccc(S(=O)(=O)NCCC(=O)NO)cc1` [Example 69] to `CC#CCOc1ccc(S(=O)(=O)NC(CCC(=O)O)C(=O)NO)cc1` (stereo not drawn) [Example 86], the “% Inhibition at 1 uM” value falls from 48.5% to 37.5%.

First: CC#CCOc1ccc(S(=O)(=O)NC(CCN)C(=O)NO)cc1 (stereo not drawn) [Example 70]
Second: CC#CCOc1ccc(S(=O)(=O)NC(CCCN)C(=O)NO)cc1 (stereo not drawn) [Example 76]
The “% Inhibition at 1 uM” value of the first is lower: 21.1% for the first, 29.7% for the second.

Compared with `CC#CCOc1ccc(S(=O)(=O)NC(CSC(C)(C)C)C(=O)NO)cc1` (stereo not drawn) [Example 73], `CC#CCOc1ccc(S(=O)(=O)NC(CC(C)C)C(=O)NO)cc1` (stereo not drawn) [Example 79] is higher in “% Inhibition at 1 uM” value: 79% for the first, 107% for the second.

Compared with `CC#CCOc1ccc(S(=O)(=O)NC(Cc2c[nH]cn2)C(=O)NO)cc1` (stereo not drawn) [Example 87], `CC#CCOc1ccc(S(=O)(=O)NC(Cc2ccccc2)C(=O)NO)cc1` (stereo not drawn) [Example 94] is lower in “% Inhibition at 1 uM” value: 47.8% for the first, 38.2% for the second.

Compared with `CC#CCOc1ccc(S(=O)(=O)N2CC(OCc3ccccc3)CC2C(=O)NO)cc1` (stereo not drawn) [Example 88], `CC#CCOc1ccc(S(=O)(=O)NC(C(=O)NO)C(C)OCc2ccccc2)cc1` (stereo not drawn) [Example 99] is higher in “% Inhibition at 1 uM” value: 8.4% for the first, 28.5% for the second.

Compared with `CC#CCOc1ccc(S(=O)(=O)N[C@H](C(=O)NO)[C@@H](C)CC)cc1` [Example 89], `CC#CCOc1ccc(S(=O)(=O)NC(C(=O)NO)C(C)C)cc1` (stereo not drawn) [Example 104] is lower in “% Inhibition at 1 uM” value: 56.8% for the first, 38.5% for the second.

Compared with `CC#CCOc1ccc(S(=O)(=O)NC(CSCNC(C)=O)C(=O)NO)cc1` (stereo not drawn) [Example 96], `CC#CCOc1ccc(S(=O)(=O)NC(C(=O)NO)C(C)O)cc1` (stereo not drawn) [Example 100] is lower in “% Inhibition at 1 uM” value: 22% for the first, 15.4% for the second.

Compared with `CC#CCOc1ccc(S(=O)(=O)NC(Cc2c[nH]c3ccccc23)C(=O)NO)cc1` (stereo not drawn) [Example 101], `CC#CCOc1ccc(S(=O)(=O)NC(Cc2ccc(O)cc2)C(=O)NO)cc1` (stereo not drawn) [Example 102] is lower in “% Inhibition at 1 uM” value: 30.2% for the first, 27.3% for the second.

`CC#CCOc1ccc(S(=O)(=O)NC(Cc2ccc(OCc3ccccc3)cc2)C(=O)NO)cc1` (stereo not drawn) [Example 103] was tested, and the “% Inhibition at 1 uM” value was 52.8%.

Same assay, conditions: 1 uM; Table 15; read-out: % Inhibition at 1 uM (In Vitro Inhibition of TACE)

First: CC#CCOc1ccc(S(=O)(=O)NC(C)C(=O)NO)cc1 (stereo in doubt) [Example 62B, L-2-(4-but-2-ynyloxy-Benzenesulfonylamino)-N-hydroxy-propionamide]
Second: CC#CCOc1ccc(S(=O)(=O)N[C@@H](C(=O)NO)C(C)C)cc1 [Example 85]
The inhibition at 1 µM of the first is lower: 46.2% for the first, 102% for the second.

Same assay, conditions: IC 50 nM (In Vitro Inhibition of TACE), Table 15

Going from `CC#CCOc1ccc(S(=O)(=O)N[C@@H](CCCNC(=N)N)C(=O)NO)cc1` [Example 64] to `CC#CCOc1ccc(S(=O)(=O)N[C@H](CCCNC(=N)N)C(=O)NO)cc1` [Example 296, (2R)-2-(4-But-2-ynyloxy-benzenesulfonylamino)-5-guanidino-pentanoic acid hydroxyamide], the IC50 falls from 420 ± 50 nM to 10.9 nM (39-fold).

Compared with `CC#CCOc1ccc(S(=O)(=O)N[C@@H](CCCN=C(N)NS(=O)(=O)c2ccc(C)cc2)C(=O)NO)cc1` [Example 65], `CC#CCOc1ccc(S(=O)(=O)N[C@H](CCCNC(=N)NS(=O)(=O)c2ccc(C)cc2)C(=O)NO)cc1` [Example 297, (2R)-2-({[4-(2-Butynyloxy)phenyl]sulfonyl}amino)-N-hydroxy-5-[(imino{[(4-methylphenyl)sulfonyl]amino}methyl)amino]pentanamide] is 37-fold lower in IC50: 398 ± 136 nM for the first, 10.9 nM for the second. The second is the more potent here.

First: CC#CCOc1ccc(S(=O)(=O)N[C@@H](CC(=O)OC2CCCCC2)C(=O)NO)cc1 [Example 68]
Second: CC#CCOc1ccc(S(=O)(=O)N[C@@H](CC2CCCCC2)C(=O)NO)cc1 [Example 71]
The IC50 of the first is 2.2-fold higher: 885 nM for the first, 402 ± 55 nM for the second. The second is the more potent here.

First: CC#CCOc1ccc(S(=O)(=O)N[C@H](C(=O)NO)C2CCCCC2)cc1 [Example 72]
Second: CC#CCOc1ccc(S(=O)(=O)N[C@@H](C(=O)NO)C2CCCCC2)cc1 [Example 78]
The IC50 of the first is 47-fold higher: 550 nM for the first, 11.8 ± 4.6 nM for the second.

Going from `CC#CCOc1ccc(S(=O)(=O)N[C@@H](CSCc2ccc(OC)cc2)C(=O)NO)cc1` [Example 74] to `CC#CCOc1ccc(S(=O)(=O)N[C@H](CSCc2ccc(C)cc2)C(=O)NO)cc1` [Example 301, (2S)-2-({[4-(But-2-ynyloxy)phenyl]sulfonyl}amino)-N-hydroxy-3-[(4-methylbenzyl)thio]propanamide], the IC50 falls from 297 ± 119 nM to 24.6 nM (12-fold).

First: CC#CCOc1ccc(S(=O)(=O)N[C@H](CC(N)=O)C(=O)NO)cc1 [Example 75]
Second: CC#CCOc1ccc(S(=O)(=O)N[C@H](CCC(N)=O)C(=O)NO)cc1 [Example 303, (2R)-2-({[4-(But-2-ynyloxy)phenyl]sulfonyl}amino)-N-hydroxypentanediamide]
The IC50 of the first is 14-fold higher: 387 nM for the first, 27.4 nM for the second.

`CC#CCOc1ccc(S(=O)(=O)N[C@H](CC2CCCCC2)C(=O)NO)cc1` [Example 77] and `CC#CCOc1ccc(S(=O)(=O)N[C@H](CCC)C(=O)NO)cc1` [Example 313, (2R)-2-({[4-(But-2-ynyloxy)phenyl]sulfonyl}amino)-N-hydroxypentanamide] are within error of each other in IC50: 6.9 ± 3.3 nM for the first, 6.3 nM for the second.

Compared with `CC#CCOc1ccc(S(=O)(=O)N[C@H](CCSC)C(=O)NO)cc1` [Example 80], `CC#CCOc1ccc(S(=O)(=O)N[C@@H](CCCC)C(=O)NO)cc1` [Example 93] is 51-fold higher in IC50: 10.8 ± 3.7 nM for the first, 546 nM for the second. The first is the more potent here.

Compared with `CC#CCOc1ccc(S(=O)(=O)N[C@H](Cc2ccccc2)C(=O)NO)cc1` [Example 81], `CC#CCOc1ccc(S(=O)(=O)N[C@H](CCc2ccccc2)C(=O)NO)cc1` [Example 305, (2R)-2-({[4-(But-2-ynyloxy)phenyl]sulfonyl}amino)-N-hydroxy-4-phenylbutanamide] is 2.7-fold higher in IC50: 4.99 ± 1.1 nM for the first, 13.4 nM for the second. The first is the more potent here.

Compared with `CC#CCOc1ccc(S(=O)(=O)N2CCC[C@@H]2C(=O)NO)cc1` [Example 82], `CC#CCOc1ccc(S(=O)(=O)N2C[C@@H](O)C[C@@H]2C(=O)NO)cc1` [Example 307, (2R,4S)-1-{[4-(But-2-ynyloxy)phenyl]sulfonyl}-N,4-dihydroxypyrrolidine-2-carboxamide] is 4.1-fold higher in IC50: 7.1 nM for the first, 29.4 nM for the second. The first is the more potent here.

Compared with `CC#CCOc1ccc(S(=O)(=O)N[C@H](Cc2c[nH]c3ccccc23)C(=O)NO)cc1` [Example 83], `CC#CCOc1ccc(S(=O)(=O)N[C@H](Cc2cccc3ccccc23)C(=O)NO)cc1` [Example 310, (2R)-2-({[4-(But-2-ynyloxy)phenyl]sulfonyl}amino)-N-hydroxy-3-(1-naphthyl)propanamide] is 1.6-fold lower in IC50: 45.1 ± 9.5 nM for the first, 27.9 nM for the second. The second is the more potent here.

First: CC#CCOc1ccc(S(=O)(=O)N[C@H](Cc2ccc(O)cc2)C(=O)NO)cc1 [Example 84]
Second: CC#CCOc1ccc(S(=O)(=O)N[C@H](Cc2ccc3ccccc3c2)C(=O)NO)cc1 [Example 311, (2R)-2-({[4-(But-2-ynyloxy)phenyl]sulfonyl}amino)-N-hydroxy-3-(2-naphthyl)propanamide]
The IC50 of the first is 2-fold lower: 7.8 ± 0.4 nM for the first, 15.7 nM for the second.

First: CC#CCOc1ccc(S(=O)(=O)N[C@@H](C(=O)NO)C(C)C)cc1 [Example 85]
Second: CC#CCOc1ccc(S(=O)(=O)N[C@@H](CC(C)C)C(=O)NO)cc1 [Example 90]
The IC50 of the first is 56-fold lower: 8.3 ± 2.7 nM for the first, 462 ± 58 nM for the second.

First: CC#CCOc1ccc(S(=O)(=O)N[C@@H](CCCCN)C(=O)NO)cc1 [Example 92]
Second: CC#CCOc1ccc(S(=O)(=O)N[C@H](CCCCN)C(=O)NO)cc1 [Example 308, (2R)-6-Amino-2-({[4-(but-2-ynyloxy)phenyl]sulfonyl}amino)-N-hydroxyhexanamide]
The IC50 of the first is 17-fold higher: 490 ± 139 nM for the first, 29.5 nM for the second. The second is the more potent here.

First: CC#CCOc1ccc(S(=O)(=O)N[C@H](C(=O)NO)c2ccccc2)cc1 [Example 95]
Second: CC#CCOc1ccc(S(=O)(=O)N[C@@H](COCc2ccccc2)C(=O)NO)cc1 [Example 97]
The IC50 of the first is 2.4-fold lower: 120 nM for the first, 283 ± 42 nM for the second. The first is the more potent here.

Going from `CC#CCOc1ccc(S(=O)(=O)N[C@H](CCCNC(=N)NS(=O)(=O)c2c(C)cc(OC)c(C)c2C)C(=O)NO)cc1` [Example 295] to `CC#CCOc1ccc(S(=O)(=O)N[C@H](CCCC)C(=O)NO)cc1` [Example 312, (2R)-2-({[4-(But-2-ynyloxy)phenyl]sulfonyl}amino)-N-hydroxyhexanamide], the IC50 falls from 29.3 nM to 4.7 nM (6.2-fold). The second is the more potent here.

`CC#CCOc1ccc(S(=O)(=O)N[C@H](CSC(C)(C)C)C(=O)NO)cc1` [Example 299, (2S)-3-(tert-Butylthio)-2-({[4-(but-2-ynyloxy)phenyl]sulfonyl}amino)-N-hydroxypropanamide] and `CC#CCOc1ccc(S(=O)(=O)N[C@H](CSCNC(C)=O)C(=O)NO)cc1` [Example 300, (2S)-3-{[(Acetylamino)methyl]thio}-2-({[4-(but-2-ynyloxy)phenyl]sulfonyl}amino)-N-hydroxypropanamide] are within 1.5-fold of each other in IC50: 10.4 nM for the first, 11 nM for the second.

Going from `CC#CCOc1ccc(S(=O)(=O)N[C@H](CCC(=O)O)C(=O)NO)cc1` [Example 304, (4R)-4-({[4-(But-2-ynyloxy)phenyl]sulfonyl}amino)-5-(hydroxyamino)-5-oxopentanoic acid] to `CC#CCOc1ccc(S(=O)(=O)N[C@H](Cc2cnc[nH]2)C(=O)NO)cc1` [Example 306, (2R)-2-({[4-(But-2-ynyloxy)phenyl]sulfonyl}amino)-N-hydroxy-3-(1H-imidazol-5-yl)propanamide], the IC50 falls from 28.9 nM to 8.7 nM (3.3-fold). The second is the more potent here.

Work on `CC#CCOc1ccc(S(=O)(=O)N[C@H](CCCCNC(=O)OCc2ccccc2)C(=O)NO)cc1` [Example 309, Benzyl(5R)-5-({[4-(but-2-ynyloxy)phenyl]sulfonyl}amino)-6-(hydroxyamino)-6-oxohexylcarbamate] yielded an IC50 of 11.4 nM.

Same assay, conditions: read-out: IC 50 nM (In Vitro Inhibition of TACE); Table 15

Compared with `CC#CCOc1ccc(S(=O)(=O)NC(CSC(C)(C)C)C(=O)NO)cc1` (stereo not drawn) [Example 73], `CC#CCOc1ccc(S(=O)(=O)NC(CC(C)C)C(=O)NO)cc1` (stereo not drawn) [Example 79] is 79-fold lower in IC50: 451 ± 31 nM for the first, 5.7 ± 2.5 nM for the second.

Same assay, conditions: read-out: TACE IC50

Work on `CC#CCOc1ccc(S(=O)(=O)N(C)CC(=O)NO)cc1` [Example 17, 2-[(4-but-2-ynyloxy-Benzenesulfonyl)-methyl-amino]-N-hydroxy-acetamide] yielded an IC50 of 6.8 nM.

From patent US6716833B2, “Acetylenic α-amino acid-based sulfonamide hydroxamic acid tace inhibitors” (priority 1999, dated 2004)
